ChEMBL document CHEMBL1149662, “Design and synthesis of a library of tertiary amides: evaluation as mimetics of the melanocortins' active core” (Bioorg Med Chem, 2007)
Calls of active or inactive are those of the source. The rule behind the calls is not given here.

What was measured:
[1] = biological target: T1, Melanocyte-stimulating hormone receptor (Mus musculus, UniProt Q01727); test: Displacement of [125I]NDP-MSH from MC1 receptor in mouse B16 cells; type: cell-based
[2] = biological target: T2, Melanocortin receptor 3 (Homo sapiens, UniProt P41968); test: Displacement of [125I]NDP-MSH from human recombinant MC3 receptor expressed in Sf9 cells
[3] = biological target: T3, Melanocortin receptor 4 (Homo sapiens, UniProt P32245); test: Displacement of [125I]NDP-MSH from human recombinant MC4 receptor expressed in Sf9 cells
[4] = biological target: T4, Melanocortin receptor 5 (Homo sapiens, UniProt P33032); test: Displacement of [125I]NDP-MSH from human recombinant MC5 receptor expressed in Sf9 cells up to 1 mM
[5] = biological target: T4, Melanocortin receptor 5; test: Displacement of [125I]NDP-MSH from human recombinant MC5 receptor expressed in Sf9 cells
[6] = biological target: Melanocyte-stimulating hormone receptor (Mus musculus) (UniProt Q01727); test: Antagonist activity MC1 receptor in mouse B16 cells assessed as inhibition of alpha-MSH-induced cAMP accumulation at 100 uM; type: functional, cell-based
[7] = biological target: T2, Melanocortin receptor 3; test: Antagonist activity at MC3 receptor expressed in COS1 cells assessed as inhibition of alpha-MSH-induced cAMP accumulation at 100 uM; type: functional, cell-based; conditions: COS-1
[8] = biological target: T3, Melanocortin receptor 4; test: Antagonist activity at MC4 receptor expressed in COS1 cells assessed as inhibition of alpha-MSH-induced cAMP accumulation at 100 uM; type: functional, cell-based; conditions: COS-1
[9] = biological target: T4, Melanocortin receptor 5; test: Antagonist activity at MC5 receptor expressed in COS1 cells assessed as inhibition of alpha-MSH-induced cAMP accumulation at 100 uM; type: functional, cell-based; conditions: COS-1
[10] = Selectivity for mouse MC1 receptor over human MC3 receptor
[11] = Selectivity for mouse MC1 receptor over human MC4 receptor
[12] = Selectivity for mouse MC1 receptor over human MC5 receptor
[13] = biological target: T1, Melanocyte-stimulating hormone receptor; test: Displacement of [125I]NDP-MSH from MC1 receptor in mouse B16 cells up to 1 mM; type: cell-based
[14] = biological target: T2, Melanocortin receptor 3; test: Displacement of [125I]NDP-MSH from human recombinant MC3 receptor expressed in Sf9 cells up to 1 mM
[15] = biological target: T3, Melanocortin receptor 4; test: Displacement of [125I]NDP-MSH from human recombinant MC4 receptor expressed in Sf9 cells up to 1 mM

Melanocyte-stimulating hormone receptor (Mus musculus), sequence (Q01727 whole entry, looked up): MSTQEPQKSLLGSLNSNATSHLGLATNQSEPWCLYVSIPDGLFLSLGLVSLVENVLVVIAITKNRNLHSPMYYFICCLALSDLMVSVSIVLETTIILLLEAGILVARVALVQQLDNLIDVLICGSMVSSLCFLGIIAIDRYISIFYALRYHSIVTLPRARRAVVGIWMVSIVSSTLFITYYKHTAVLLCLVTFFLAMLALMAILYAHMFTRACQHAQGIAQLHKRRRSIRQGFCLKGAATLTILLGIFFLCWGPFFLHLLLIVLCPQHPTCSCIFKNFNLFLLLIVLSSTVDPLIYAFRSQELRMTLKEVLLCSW
T1 sequence (Q01727 whole entry): as the sequence (Q01727 whole entry, looked up) above
T2 sequence (P41968 whole entry): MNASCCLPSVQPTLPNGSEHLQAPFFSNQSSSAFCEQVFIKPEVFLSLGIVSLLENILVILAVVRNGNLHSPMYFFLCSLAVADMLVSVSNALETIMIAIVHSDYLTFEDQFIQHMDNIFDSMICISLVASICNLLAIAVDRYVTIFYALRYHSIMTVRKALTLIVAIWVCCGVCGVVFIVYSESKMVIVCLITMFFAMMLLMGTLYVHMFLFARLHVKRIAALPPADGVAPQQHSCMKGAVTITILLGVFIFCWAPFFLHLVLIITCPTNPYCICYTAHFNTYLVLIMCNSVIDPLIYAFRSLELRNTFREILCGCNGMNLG
T3 sequence (P32245 whole entry): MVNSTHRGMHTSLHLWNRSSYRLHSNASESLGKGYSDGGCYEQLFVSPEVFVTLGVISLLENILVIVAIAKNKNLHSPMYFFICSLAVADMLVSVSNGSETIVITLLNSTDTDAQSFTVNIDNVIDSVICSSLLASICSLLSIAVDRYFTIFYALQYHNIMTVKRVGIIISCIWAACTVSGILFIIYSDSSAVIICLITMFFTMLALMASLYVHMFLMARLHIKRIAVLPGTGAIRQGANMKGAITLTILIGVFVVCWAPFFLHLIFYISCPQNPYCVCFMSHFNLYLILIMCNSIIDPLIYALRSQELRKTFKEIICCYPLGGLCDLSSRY
T4 sequence (P33032 whole entry): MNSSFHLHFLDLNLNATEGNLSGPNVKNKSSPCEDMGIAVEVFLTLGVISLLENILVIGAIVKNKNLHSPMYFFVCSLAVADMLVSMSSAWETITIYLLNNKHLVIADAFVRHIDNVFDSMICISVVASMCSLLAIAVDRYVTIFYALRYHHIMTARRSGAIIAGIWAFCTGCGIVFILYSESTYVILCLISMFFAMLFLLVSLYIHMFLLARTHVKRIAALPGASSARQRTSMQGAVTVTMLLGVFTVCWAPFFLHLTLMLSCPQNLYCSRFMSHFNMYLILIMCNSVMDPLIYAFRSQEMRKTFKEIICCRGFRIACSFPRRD

Row | Structure (SMILES) | Ki [1] [µM] | Ki [2] [µM] | Ki [3] [µM] | Ki [5] [µM] | also measured
1 | NCCCN(C/C=C/c1ccccc1)C(=O)Cc1c[nH]c2ccccc12 | 6.4 | 21 | 26 | – | Ki [4]: Not Active
2 | N=C(N)NCCCCN(Cc1ccc2ccccc2c1)C(=O)CCc1c[nH]c2ccccc12 | – | – | – | – | Activity [6]: Active; Activity [7]: Active; Activity [8]: Active; Activity [9]: Active
3 | NCCN(C(=O)Cc1ccc2ccccc2c1)C1CCc2ccccc2C1 (stereo not given) | 1.6 | 29 | 27 | 25 | Ratio [10]: 10; Ratio [11]: 10; Ratio [12]: 10
4 | NCc1cccc(CN(Cc2ccccc2)C(=O)CCCc2c[nH]c3ccccc23)c1 | 1.9 | 45 | 33 | 32 | Ratio [10]: 10; Ratio [11]: 10; Ratio [12]: 10
5 | NCCCCCN(Cc1ccc2ccccc2c1)C(=O)CCCc1c[nH]c2ccccc12 | 5.1 | 20 | 12 | 34 | Activity [6]: Active; Activity [7]: Active; Activity [8]: Active; Activity [9]: Active
6 | N=C(N)NCCCN(Cc1ccc2ccccc2c1)C(=O)CCc1c[nH]c2ccccc12 | 12 | 53 | 16 | 13 | Activity [6]: Active; Activity [7]: Active; Activity [8]: Active; Activity [9]: Active
7 | NCCCN(C(=O)Cc1c[nH]c2ccccc12)C1CCc2ccccc2C1 (stereo not given) | 2.4 | 37 | 33 | 25 | Ratio [10]: 10; Ratio [11]: 10; Ratio [12]: 10
8 | NCCCCCN(C/C=C/c1ccccc1)C(=O)CCc1c[nH]c2ccccc12 | 3.7 | 27 | 8.1 | 8 | Activity [6]: Active; Activity [7]: Active; Activity [8]: Active; Activity [9]: Active
9 | NCCCN(Cc1ccc2ccccc2c1)C(=O)Cc1c[nH]c2ccccc12 | 20 | 63 | 161 | 12 | Activity [6]: Active; Activity [7]: Active; Activity [8]: Active; Activity [9]: Active
10 | NCCCCCCCCN(C/C=C/c1ccccc1)C(=O)CCc1c[nH]c2ccccc12 | 1.2 | 24 | 17 | 40 | Ratio [10]: 10; Ratio [11]: 10; Ratio [12]: 10
11 | CCC(c1ccccc1)N(CCCCN)C(=O)CCc1c[nH]c2ccccc12 (stereo not given) | 15 | 38 | 158 | 13 | –
12 | NCCCCCN(Cc1ccc2ccccc2c1)C(=O)Cc1c[nH]c2ccccc12 | 1.5 | 50 | 13 | 5.2 | –
13 | NCCCCCN(Cc1ccccc1)C(=O)[C@H](N)Cc1ccccn1 | – | – | – | – | Ki [13]: Not Active; Ki [14]: Not Active; Ki [15]: Not Active; Ki [4]: Not Active
14 | NCCCCCN(Cc1ccccc1)C(=O)[C@H](N)Cc1c[nH]c2ccccc12 | 32 | 106 | 87 | 159 | –
15 | N=C(N)NCCCCN(Cc1ccc2ccccc2c1)C(=O)CCCc1c[nH]c2ccccc12 | 3.2 | 134 | 96 | 11 | –
16 | C/C(=C/c1ccccc1)CN(CCCCCN)C(=O)CCCc1c[nH]c2ccccc12 | 3.5 | 22 | 4.7 | 8.7 | –
17 | Cc1cccc(CN(C(=O)CCCc2c[nH]c3ccccc23)C2CCC(CC3CCC(N)CC3)CC2)c1 (stereo not given) | 1.3 | 22 | 3 | 12 | –
18 | NCCCCN(Cc1ccc2ccccc2c1)C(=O)c1c[nH]c2ccccc12 | 1.7 | 19 | 6.4 | 18 | –
19 | NC1CCC(CC2CCC(N(Cc3ccccc3)C(=O)CCCc3c[nH]c4ccccc34)CC2)CC1 (stereo in doubt; 10d-40-8) | 0.42 | 9.4 | 8.3 | 18 | –
20 | N=C(N)NC1CCC(CC2CCC(N(C/C(Cl)=C/c3ccccc3)C(=O)CCCc3c[nH]c4ccccc34)CC2)CC1 (stereo in doubt; form 2) | 2.7 | 13 | 3.4 | 27 | –
21 | NCCCCCN(CCCc1ccccc1)C(=O)Cc1c[nH]c2ccccc12 | 12 | 47 | 77 | 7.9 | –
22 | NC1CCC(CC2CCC(N(Cc3ccccc3F)C(=O)CCCc3c[nH]c4ccccc34)CC2)CC1 (stereo not given) | 2.4 | 20 | 3.7 | 7.2 | –

The remaining compounds from weak to strong by Ki [1], led by results:

Row | Ki [1] [µM] | Ki [2] [µM] | Ki [3] [µM] | Ki [5] [µM] | Structure (SMILES) | also measured
23 | 36 | 68 | 140 | 18 | NCCN(Cc1ccc2ccccc2c1)C(=O)Cc1c[nH]c2ccccc12 | Activity [6]: Active; Activity [7]: Active; Activity [8]: Active; Activity [9]: Active
24 | 15 | 63 | 111 | 16 | NCCCCN(Cc1ccc2ccccc2c1)C(=O)Cc1c[nH]c2ccccc12 | Activity [6]: Active; Activity [7]: Active; Activity [8]: Active; Activity [9]: Active
25 | 7.7 | 16 | 6.2 | 4.6 | NCCCCN(Cc1ccccc1)C(=O)CCCc1c(Cc2ccc(O)cc2)[nH]c2ccccc12 | –
26 | 6.8 | 33 | 25 | 34 | CCN(CC)c1ccc(CN(CCCCCN)C(=O)CCCc2c[nH]c3ccccc23)cc1 | –
27 | 4.3 | 50 | 8.4 | 40 | N[C@H]1CC[C@H](N(Cc2ccccc2)C(=O)CCCc2c[nH]c3ccccc23)CC1 | –
28 | 4.3 | 46 | 2.7 | 6.7 | COC(=O)c1ccc(CN(C(=O)CCCc2c(Cc3ccc(O)cc3)[nH]c3ccccc23)C2CCC(CC3CCC(N)CC3)CC2)cc1 (stereo not given) | –
29 | 3.7 | 26 | 19 | 23 | NCCCN(Cc1ccc2ccccc2c1)C(=O)CCCc1c[nH]c2ccccc12 | –
30 | 3.6 | 80 | 4.4 | 9.1 | NC1CCC(CC2CCC(N(Cc3ccccc3Br)C(=O)CCCc3c[nH]c4ccccc34)CC2)CC1 (stereo not given) | –
31 | 3.3 | 30 | 5.7 | 18 | NC1CCCC(N(Cc2ccccc2)C(=O)CCCc2c[nH]c3ccccc23)C1 (stereo not given) | –
32 | 3.2 | 2.7 | 10 | 12 | NCCN(C(=O)CCCc1c[nH]c2ccccc12)C1CCC2(CCCCC2)CC1 | –
33 | 2.3 | 8.1 | 7.8 | 6.9 | COc1cc(Br)c(CN(C(=O)CCCc2c[nH]c3ccccc23)[C@H]2CC[C@@H](C[C@H]3CC[C@@H](N)CC3)CC2)cc1OC | –
34 | 1.6 | 12 | 2 | 6.5 | N#Cc1ccc(CN(C(=O)CCCc2c[nH]c3ccccc23)C2CCC(CC3CCC(N)CC3)CC2)cc1 (stereo in doubt; form 1) | –
35 | 1.1 | 23 | 1.9 | 15 | NC1CCC(CC2CCC(N(Cc3c(F)cccc3Cl)C(=O)CCCc3c(Cc4ccc(O)cc4)[nH]c4ccccc34)CC2)CC1 (stereo not given) | –
36 | 0.69 | 4.3 | 1.2 | 1.7 | CC1CC(CC2CCC(N(Cc3ccccc3)C(=O)CCCc3c[nH]c4ccccc34)C(C)C2)CCC1N (stereo in doubt; form 1) | –
